“And” between values parts separate entries of the source, which are not always exact repeats. Equal entries are not always repeated. Where two headings read alike, the source gives them in different places. *1 amine or outer side, *2 acyl side, *3 side chain or, on linkers, in order; H or OH if unused. Where a SMILES comes first, the peptide text is derived from it. [ ]: non-standard residue; d: D form. X1 = O=C1c2ccccc2[C@@](O)(CN(Cc2ccccc2)[*:1])N1CC(=O)[*:2]; X2 = O=C1c2ccccc2[C@](O)(CN(Cc2ccccc2)[*:1])N1CC(=O)[*:2]; NMeL = CN[C@@H](CC(C)C)C(=O)O; dNMeL = CN[C@H](CC(C)C)C(=O)O Bounds are passed on as bounds.

Here are results for 13 compounds from article PMC9227305, “Photoinduced Synthesis of Methylated Marine Cyclopeptide Galaxamide Analogs with Isoindolinone as Anticancer Agents” (Marine Drugs, 2022).

For series [1] the following is noted: other bond; 21-membered ring; hv (450 W Hg lamp, Pyrex), SET photocyclization.
Another series concerns MDA-MB-231 cells. Format: cell-based, human. Conditions: 48 h. The source says: (§1) The antitumor activity of the prepared cyclic peptides against human hepatocellular carcinoma cells (HepG-2), human cervical cancer cell lines (HeLa) and human breast cancer cells (MDA-MB-231) was examined by MMT assay, and the mouse fibroblast L929 cells were used as the model cells to evaluate the toxicity of cyclopeptides to normal cell lines. Due to the absence of an authentic standard, taxol was chosen as a control because it is a widely used chemotherapeutic drug for the treatment of various cancers, including liver cancer.
(§2) Samples were dissolved in DMSO and diluted into different concentrations ([…], 18.75, 25, 37.5, 50, 75, 100 and 250 μM) and stored at 4 °C. Cells in the logarithmic growth phase were digested with trypsin and then seeded in 96-well plates at a density of 2 × 10^4 cells/well in 100 μL of culture medium. The cells were treated with different concentrations of the tested compound, and a blank control group without the drug was also set up. Six wells were repeated for each dose. After 48 h of co-incubation, MTT solution (100 μL, 0.5 mg/mL) was added, followed by incubation for another 4 h. After discarding the supernatant, 100 μL of DMSO was added per well, and the absorbance (OD) values were measured at 490 nm using an enzyme marker. Cell viability was calculated by the formula: Cell viability (%) = As/Ab × 100% (where As is the absorbance value of the experimental group and Ab is the absorbance value of the blank group). The obtained data were processed using SPSS19 software to obtain IC50 values.

The test system of a further series is L929 cells. In words: cells.
Source text: as §1, §2

For a further series, the system named is HepG-2 cells. In words: cells.
Source text: as §1, §2

For series [2], the system named is human hepatocellular carcinoma HepG-2 cell lines. Further details: method as in PMID 18816120. Conditions: cited from earlier work.
For series [3], the system named is renal carcinoma GRC-1 cell lines. Further details: method as in PMID 18816120. As to conditions: cited from earlier work.

In series [1], “3-Hydroxy-isoindolinone-cyclo-(Gly-Leu-N-Me-Leu-Leu-N-Me-Leu-Leu)” returned a ring closure, isolated yield of 51%.

As for “3-Hydroxy-isoindolinone-cyclo-Gly-Leu-Leu-Leu-N-Me-Leu-Leu”, the ring closure, isolated yield in series [1] is 24% and 28%.

As to “3-Hydroxy-isoindolinone-cyclo-Gly-Leu-N-Me-Leu-Leu-Leu-Leu”, in series [1], the ring closure, isolated yield was 25% and 23%.

Consider “3-Hydroxy-isoindolinone-cyclo-Gly-Leu-N-Me-Leu-Leu-N-Me-Leu-Leu”, for which the ring closure, isolated yield in series [1] was 48% and 43% and 45%.

As for `CC(C)C[C@@H]1C(=O)N[C@H](CC(C)C)C(=O)N(C)[C@H](CC(C)C)C(=O)N[C@H](CC(C)C)C(=O)N(Cc2ccccc2)C[C@@]2(O)c3ccccc3C(=O)N2CC(=O)N[C@H](CC(C)C)C(=O)N1C` [Compound 1, 3-Hydroxy-isoindolinone-cyclo-(Gly-Leu-N-Me-Leu-Leu-N-Me-Leu-Leu)] (cyclo([dNMeL][dL][dNMeL][dL][X2][dL])), the values for the IC50 in the series with MDA-MB-231 cells, in the series with L929 cells (48 h) and in the series with HepG-2 cells (48 h) were 59.3 ± 2.3 µM, over 400 µM and 38.4 ± 2.2 µM, respectively.

Regarding `CC(C)C[C@H]1NC(=O)[C@H](CC(C)C)N(C)C(=O)[C@@H](CC(C)C)NC(=O)[C@H](CC(C)C)N(C)C(=O)[C@@H](CC(C)C)NC(=O)CN2C(=O)c3ccccc3[C@]2(O)CN(Cc2ccccc2)C1=O` [Compound 2, 3-Hydroxy-isoindolinone-cyclo-Gly-Leu-N-Me-Leu-Leu-N-Me-Leu-Leu] (cyclo([NMeL][dL][NMeL][dL][X2][dL])), the IC50 with MDA-MB-231 cells was 67.6 ± 3.3 µM; in the series with L929 cells (48 h), 364 ± 15.6 µM; in the series with HepG-2 cells (48 h), 72.1 ± 5.8 µM.

As for `CC(C)C[C@@H]1NC(=O)[C@@H](CC(C)C)N(C)C(=O)[C@H](CC(C)C)NC(=O)[C@@H](CC(C)C)N(C)C(=O)[C@H](CC(C)C)NC(=O)CN2C(=O)c3ccccc3[C@]2(O)CN(Cc2ccccc2)C1=O` [Compound 3, 3-Hydroxy-isoindolinone-cyclo-Gly-Leu-N-Me-Leu-Leu-N-Me-Leu-Leu] (cyclo([dNMeL]L[dNMeL]L[X2]L)), the values for the IC50 with MDA-MB-231 cells, in the series with L929 cells (48 h) and in the series on HepG-2 cells (48 h) were 73.2 ± 2.8 µM, over 400 µM and 90.9 ± 7.69 µM, respectively.

Turning to `CC(C)C[C@@H]1NC(=O)[C@H](CC(C)C)N(C)C(=O)[C@H](CC(C)C)NC(=O)[C@H](CC(C)C)N(C)C(=O)[C@H](CC(C)C)NC(=O)CN2C(=O)c3ccccc3[C@@]2(O)CN(Cc2ccccc2)C1=O` [Compound 4, 3-Hydroxy-isoindolinone-cyclo-Gly-Leu-N-Me-Leu-Leu-N-Me-Leu-Leu] (cyclo([NMeL]L[NMeL]L[X1]L)), the IC50 in the series with MDA-MB-231 cells was 95.3 ± 8.6 µM; in the series with L929 cells (48 h), 310 ± 20.1 µM; with HepG-2 cells (48 h) it was 81 ± 4.29 µM.

As for `CC(C)C[C@@H]1C(=O)N[C@H](CC(C)C)C(=O)N[C@H](CC(C)C)C(=O)N[C@H](CC(C)C)C(=O)N(Cc2ccccc2)C[C@]2(O)c3ccccc3C(=O)N2CC(=O)N[C@H](CC(C)C)C(=O)N1C` [Compound 5, 3-Hydroxy-isoindolinone-cyclo-Gly-Leu-Leu-Leu-N-Me-Leu-Leu] (cyclo([dL][dL][X1][dL][dNMeL][dL])), the 50% inhibitory concentration (IC50) with MDA-MB-231 cells was 60.8 ± 8.2 µM; in the series on L929 cells (48 h), 153 ± 10.7 µM; in the series with HepG-2 cells (48 h), 28.2 ± 6.2 µM.

`CC(C)C[C@@H]1C(=O)N[C@H](CC(C)C)C(=O)N[C@H](CC(C)C)C(=O)N[C@H](CC(C)C)C(=O)N(Cc2ccccc2)C[C@]2(O)c3ccccc3C(=O)N2CC(=O)N[C@H](CC(C)C)C(=O)N1C` [Compound 6, 3-Hydroxy-isoindolinone-cyclo-Gly-Leu-N-Me-Leu-Leu-Leu-Leu] (cyclo([dL][dL][X1][dL][dNMeL][dL])): the concentration for half-maximal inhibition (IC50) in the series on MDA-MB-231 cells was 67.6 ± 2.3 µM; in the series with L929 cells (48 h), 120 ± 5.3 µM; with HepG-2 cells (48 h) it was 36.1 ± 2.2 µM.

For `CC(C)C[C@@H]1NC(=O)[C@H](CC(C)C)NC(=O)[C@H](CC(C)C)N(C)C(=O)[C@H](CC(C)C)NC(=O)CN2C(=O)c3ccccc3[C@@]2(O)CN(Cc2ccccc2)C(=O)[C@H](CC(C)C)NC1=O` [Compound 7, 3-Hydroxy-isoindolinone-cyclo-Gly-Leu-Leu-Leu-N-Me-Leu-Leu] (cyclo(LL[X1]L[NMeL]L)), the half-maximal inhibitory concentration (IC50) in the series with MDA-MB-231 cells was 112 ± 9 µM; in the series on L929 cells (48 h), over 400 µM; in the series with HepG-2 cells (48 h), 30.4 ± 1.6 µM.

In the case of `CC(=O)O[C@H]1C(=O)[C@@]2(C)[C@H]([C@H](OC(=O)c3ccccc3)[C@]3(O)C[C@H](OC(=O)[C@H](O)[C@@H](NC(=O)c4ccccc4)c4ccccc4)C(C)=C1C3(C)C)[C@]1(OC(C)=O)CO[C@@H]1C[C@@H]2O` [Taxol, paclitaxel, reference compound], the IC50 was 141 ± 9.3 µM with L929 cells (Mus musculus, L929, 48 h, read-out: IC50 L929) and 40.9 ± 5.2 µM in the series on HepG-2 cells (Homo sapiens, HepG2, 48 h, read-out: IC50 HepG-2).

“cyclo-(L-Leu-L-N-Me-Leu-L-Leu-L-Leu-L-N-Me-Leu-L-Leu) [galaxamide]”: the “in vitro antitumor activity” value in series [2] and in series [3] was “strong” each time.

Broadly, the IC50 is the concentration that gives 50% inhibition.
